In patent US9101628B2, “Methods and composition of treating a flaviviridae family viral infection” (The Board of Trustees of the Leland Stanford Junior …, priority 2007, dated 2015):
Where two headings read alike, the source gives them in different places.

Key:
[1] = target: hERG channel (Homo sapiens, UniProt Q12809)
[2] = test system: replicon harboring the W55R mutation; test: Whole cell RNA electroporation, clemizole resistant clone; format: cell-based, HCV; conditions: 10 μM clemizole; 2.5 μM SCH503034
Description: Whole cell RNA was extracted from clemizole-resistant replicon clones and from untreated replicon cells using TRIzol reagent (Invitrogen). Equal amounts of whole cell RNA (50 μg) were electroporated into Huh7.5 cells as described above. Cells were grown under G418 selection in the presence or absence of clemizole for 3 weeks. The number of colonies was determined using Image J (NIH) following fixation and staining with Crystal violet.
Cells transfected with whole cell RNA extracted from wild type replicon cells were sensitive to both drugs.

[3] = test system: Huh7.5 cells; test: Alamar Blue-based cell viability assay; set-up: species or system human; conditions: at antiviral concentrations, Alamar Blue, 72 hr
Description: (§1) Total volume per well is 100 μl.
(§2) (or until there is a color change).

[4] = Alamar Blue-based cell viability assay; set-up: species or system human; conditions: human
Description: as §1, §2

[5] = test system: replicon harboring the A156T mutation; test: Whole cell RNA electroporation, SCH503034 resistant clone; format: cell-based, HCV
[6] = test system: HCV (genotype 4); test: Treatment of patients chronically infected with HCV; format: in vivo, human; conditions: clemizole 100 milligrams p.o. BID alone, 4 weeks, 3 patients
Description: After the first four weeks of clemizole monotherapy, pegylated interferon (180 micrograms Pegasus (Roche) s.q. per week) was added.

[7] = test system: genotype 1b subgenomic HCV replicon (Bart 79I); format: cell-based
[8] = test system: W55R mutant J6/JFH RNA; test: Luciferase reporter-linked replication assay, W55R mutant; format: cell-based, HCV
Source text: Two of the clemizole-resistant NS4B mutants were characterized in detail. The first, W55R is depicted in FIG. 6a. It involves the substitution of an arginine for the tryptophan at amino acid 55 within a predicted cytoplasmically-oriented segment of NS4B. This mutation is sufficient to confer a clemizole-resistant phenotype in cells: Huh7.5 cells transfected with either whole cell RNA extracted from the W55R mutant cells (FIG. 6b) or with in vitro-transcribed J6/JFH RNA encoding this point mutation and a linked luciferase reporter gene (FIG. 6c) were unaffected by 10 μM clemizole.
The plasmid FL-J6/JFH-5′C19Rluc2AUbi that consists of the full-length HCV genome and expresses Renilla luciferase was a gift from Dr. Charles M. Rice. The W55R mutation was introduced into this plasmid by site-directed mutagenesis (using the QuikChange kit (Stratagene)).
Medium was changed daily.

[9] = test system: subgenomic Bart 79I HCV RNA replicon (genotype 1b); test: microbe, parasite or virus in culture; format: cell-based; conditions: Hepatitis C virus; genotype 1b luciferase reporter, 72 hr; read-out: EC50 HCV replication
[10] = target: NS4B (binding to 3′ terminus negative strand HCV RNA) (Hepatitis C virus genotype 1a, UniProt P27958); test: In vitro microfluidic NS4B RNA binding assay; conditions: wild type NS4B, 10 nM clemizole
[11] = target: T1, HuR (Homo sapiens, UniProt Q15717); test: HuR RNA binding by microfluidics (specificity of hits); conditions: 0.1 mM
T1 construct: The open reading frames (ORF) of HuR and HuD were obtained from the ORFeome library of cDNA clones (Open biosystems); V5-his (C); made in house; host or cells: cell-free expression on the microfluidic device, from pcDNA-Dest 40 carrying the ORFeome clone (Open Biosystems)
Description: Specificity of hits identified in the small molecule screen: To determine the specificity of the hits identified in the small molecule screen, the HuR protein (one of the human RNA binding protein used to validate our RNA binding assay) was selected. […] Binding of HuR to the consensus 4A RNA sequence was tested in the presence of the inhibitory molecules shown to inhibit RNA binding by NS4B. […] Similarly, 0.1 mM of the identified compounds didn't have an inhibitory effect on binding of HuR to the 3′ terminus of the negative HCV RNA strand.

[12] = test system: R214Q NS4B mutant HCV; test: Luciferase reporter linked replication assay, R214Q mutant; format: cell-based
[13] = target: T2, W55R NS4B mutant (Hepatitis C virus genotype 1a, UniProt P27958, A1893V/D1840G/F1898S/L1839I/R1905H/S1900A/W1766R); test: In vitro microfluidic RNA binding assay, W55R NS4B mutant; set-up: species or system HCV; conditions: 10 nM clemizole
T2 construct: made in house; host or cells: in vitro transcription/translation, inferred from the way wild-type NS4B-GFP was made; not repeated for the mutant

[14] = test system: infectious HCV clone (J6/JFH); test: Real-time PCR assay of HCV replication in HCV-infected Huh7.5 cells; format: cell-based; conditions: real-time PCR (FIG. 8)
Description: 5×10^4 Huh7.5 ells were infected with cell culture-grown HCV titered at 1.4×10^4 TCID50/ml, as described. 2 hours after infection, cells were washed three times in culture medium. Cells were then treated daily with various concentrations of clemizole. After 72 hours, samples were subjected to the viability assay described above, following which TRIzol Reagent (Invitrogen) was added and total cell RNA was extracted in triplicates according to the manufacturer's instructions. Reverse transcription was then performed using random hexamers and Superscript II reverse transcriptase (Invitrogen, Carlsbad, Calif.). Real-time PCR was performed on the resulting cDNA to quantify the amounts of HCV and actin RNA (in separate reactions) in each sample. Standards were made using an in vitro-transcribed HCV RNA and human actin standard (Applied Biosystems, Foster City, Calif.). HCV was quantified using primers […] (SEQ ID NO 8) and […] (SEQ ID NO 9) and probe 6-carboxyfluorescein-[…]-6 (SEQ ID NO 10) carboxytetramethylrhodamine. Actin was quantified using beta-actin control reagents (Applied Biosystems) according to the manufacturer's instructions. HCV RNA level was adjusted to actin level and normalized relative to untreated samples.

Compound | IC50 [1] [µM] | sensitivity of Huh7.5 cells transfected with whole cell RNA from W55R clone [2] | cellular toxicity [3] | CC50 at 72 h ([4]; genotype 1b experiments, Alamar Blue, 72 hr) [µM] | CC50 at 72 h ([4]; genotype 2a experiments, Alamar Blue-based and CellTiter-Blue assay) [µM] | sensitivity of Huh7.5 cells transfected with whole cell RNA from A156T clone [5] | HCV viral loads in serum [6] | decrease of the frequency of resistant colonies selected with 1 μM of SCH503034 ([7]; 4 μM clemizole added) [folds] | decrease of the frequency of resistant colonies selected with 1 μM of SCH503034 ([7]; 8 μM clemizole added) [folds] | effect on replication of W55R mutant ([8]; 10 μM clemizole) | EC50 relative to the EC50 on the wild type RNA ([8]; W55R mutant) [times] | EC50 [9] [µM] | reduction of RNA binding [10] [fold] | effect on binding of HuR to 4A RNA sequence [11] | EC50 relative to the EC50 on the wild type RNA [12] [times] | reduction of RNA binding [13] [fold] | HCV replication levels [14]
COc1ccc(Cn2cnc3c(NS(C)(=O)=O)c(C)c(C)cc32)cc1 [Compound 106] | > 10 |  |  |  |  |  |  |  |  |  |  |  |  |  |  |  | 
Clc1ccc(Cn2c(CN3CCCC3)nc3ccccc32)cc1 [clemizole] |  | unaffected | no measurable toxicity | 40 ± 5 | 35 ± 0.5 | but not to clemizole | decreased significantly | 6 | 18 | unaffected | 2.25 | 23 ± 7 | ~2 | No inhibitory effect | ~5 | ~2 | inhibits HCV replication
